What was measured:
CyP A = CyP A (Homo sapiens, UniProt P62937); assay: biochemical; details: for inhibition at 10 µM: read-out: % Inhibition at 10 μM
Protocol: A number of substrates for rotamase are known in the art or can be derived from those known. Typically, the substrate contacts a sample containing a protein with rotamase activity and the conversion of the substrate is detected after a period of time. The method for detecting conversion of the substrate will vary with the particular substrate chosen.
The following were added to a plastic cuvette: […] of ice cold assay buffer (25 mM HEPES, pH 7.8, 100 mM NaCl), 10 μL of CyP A (2.5 μM in 10 mM Tris-Cl pH 7.5, 100 mM NaCl, 1 mM dithiothreitol), 25 μL of chymotrypsin (50 mg/ml in 1 mM HCl), and 10 μL of test compound, at various concentrations, in dimethyl sulfoxide. The reaction was initiated by the addition of 5 μL of substrate (succinyl-Ala-Phe-Pro-Phe-para-nitroanilide, 5 mg/mL in 470 mM LiCl in trifluoroethanol). The absorbance at 390 nm versus time was monitored for 90 seconds using a spectrophotometer.
While CyP A is used in these examples, other CyP proteins can be substituted.

ventral horn motoneurons = assay: Neuroprotection assay, THA-treated organotypic spinal cord slice cultures; format: cell-based; details: THA 200 μM + compound 10 μM, rat spinal cord slice cultures, FIGS. 1-6
Protocol: For each of FIGS. 1-6, the bar graphs represent the number of viable neurons after a specified treatment regimen employed in a neuroprotective activity assay. The cells of the experiments were treated with a control solution, a neurotoxic solution, and neurotoxic+experimental compound solution. The statistical significance, p, is calculated using the standard 2 tailed Student's t test.
Protection of cells from calcium-related physiological stress can be assessed in a neuroprotection assay. Organotypic slice cultures of rat spinal cord tissue display a protracted loss of ventral horn motoneurons when exposed to the glutamate uptake inhibitor THA. […] Each experiment consisted of two 6-well plates with 5 slices from 4 different animals per well. Media changes were performed every 3 to 4 days. […] The control was an untreated sample with 0.1% DMSO as vehicle. The THA control was a THA treated sample with 0. 1% DSMO as vehicle. Two wells were used per condition. One media change with new THA and compounds was performed. The experiment was stopped 6 to 8 days following drug treatment (13-15 total days in vitro, DIV) as dictated by visual assessment of lesion, by fixation with 4% paraformaldehyde/0.1 M phosphate buffer for 30 minutes. Slices were permeabilized with 100% cold methanol for 10 minutes. Slices were transferred to staining wells. The slices were blocked with 10% horse serum/TBS. Primary antibody incubation was overnight at 4° C. with SMI-32 antibody 1:5000 in 2% horse serum/TBS. SMI-32 is specific towards the unphosphorylated H neurofilament subunit, and was here utilized as a marker for ventral horn motoneurons. A Vectastain ABC Elite Kit with rat absorbed anti-mouse secondary antibody was used with DAB to stain the slices. The slices were mounted under DPX mounting solution for microscopy.
Quantification of surviving neurons was performed on a Zeiss Axiovert microscope. Neuronal survival was determined by observing an intact neuronal cell body with processes located ventrally of the central canal in each hemisphere. This correlated to laminae VII, VIII and IX. Each hemisphere was counted individually. The statistics were performed with StatView software on a minimum of three different experiments per condition and significance was determined as compared to THA control. The percent of protection was determined from the average number of living neurons by the following equation: (drug treatment condition —THA control)/(Untreated control-THA control).

neuronal cells = assay: Neurotrophic or neuroprotectant activity (assay not specified); format: cell-based
Text: In general, activity in the nervous system for a particular compound can be identified by assaying for the ability to promote neurite outgrowth, protect neurons from damage by chemical treatments, promote the growth of neurons or neuronal cells, recover lost or damaged motor, functional or cognitive ability associated with nervous tissue or organs of the nervous system, or regenerate neurons. These activities can be useful in treating, diagnosing, or prognosing a number of human disease conditions, including, but not limited to, Parkinson's disease, Alzheimer's disease, amyotrophic lateral sclerosis (ALS), traumatic injury, spinal cord injury, multiple sclerosis, diabetic neuropathy, neuropathy associated with medical treatments such as chemotherapy, ischemia or ischemia-induced injury, stroke, oxygen deprivation, retinopathies, peripheral neuropathies, and neuropathies associated with viral infection.
Preferred methods for detecting neuronal activity include a neuroprotective assay, in which a compound is tested for the ability to protect against treatment causing glutamate neurotoxicity. Sensory neuronal cultures (DRG) can also be assayed for neurite outgrowth, an assay for neurotrophic activity. […] Immunohistochemistry can aid in the visualization and quantitation of neurites as compared to control.

CyP A, sequence (P62937 whole entry): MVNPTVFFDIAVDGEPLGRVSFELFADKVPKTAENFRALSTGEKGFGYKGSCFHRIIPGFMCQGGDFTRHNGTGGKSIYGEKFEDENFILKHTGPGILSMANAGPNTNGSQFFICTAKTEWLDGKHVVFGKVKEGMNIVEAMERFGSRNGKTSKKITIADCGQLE

NC(=O)c1ccccc1NC(=O)Nc1cc(NC(=O)Nc2ccccc2C(N)=O)c(Br)cc1Br [Compound 1]
inhibition at 10 µM (CyP A): 100%

O=C(Nc1ccc(I)cc1)Nc1cc(NC(=O)Nc2ccc(I)cc2)c(Br)cc1Br [Compound 3]
IC50 (CyP A): 600 nM | neuroprotective activity (number of viable neurons) (ventral horn motoneurons): displays neuroprotective activity

Cc1ccc(NC(=O)N(Cc2ccccc2)Cc2ccccc2)cc1NC(=O)N(Cc1ccccc1)Cc1ccccc1 [Compound 4]
IC50 (CyP A): 800 nM | inhibition at 10 µM (CyP A): 100% | neuroprotective activity (number of viable neurons) (ventral horn motoneurons): displays neuroprotective activity

CSc1ccc(Cl)cc1C(=O)Nc1cccc(NC(=O)c2cc(Cl)ccc2SC)c1 [Compound 6]
inhibition at 10 µM (CyP A): 100% | neurotrophic or neuroprotectant activity (neuronal cells): possess neurotrophic or neuroprotectant activity

O=C(Nc1ccccc1)Nc1cc(NC(=O)Nc2ccccc2)cc(C(F)(F)F)c1 [Compound 7]
inhibition at 10 µM (CyP A): 100% | neurotrophic or neuroprotectant activity (neuronal cells): possess neurotrophic or neuroprotectant activity

O=C(Nc1cccc2ccccc12)NC1CCCC(NC(=O)Nc2cccc3ccccc23)C1 (centres unmarked) [Compound 10]
IC50 (CyP A): 4500 nM

O=C(Nc1cccc(NC(=O)Nc2ccon2)c1)Nc1ccon1 [Compound 11]
IC50 (CyP A): 4000 nM | inhibition at 10 µM (CyP A): 93% | neuroprotective activity (number of viable neurons) (ventral horn motoneurons): displays neuroprotective activity

COc1cccc(NC(=O)NC2CCCC(NC(=O)Nc3cccc(OC)c3)C2)c1 (centres unmarked) [Compound 12]
IC50 (CyP A): 9500 nM | inhibition at 10 µM (CyP A): 47.7% | neuroprotective activity (number of viable neurons) (ventral horn motoneurons): displays neuroprotective activity

O=S(=O)(Nc1cccc(OCCc2cccc3ccccc23)c1)c1cccc2ccccc12 [Compound 13]
IC50 (CyP A): 830 nM | inhibition at 10 µM (CyP A): 100% | melting point: 165 to 167 °C

O=C(Nc1cc(Cl)cc(Cl)c1)c1cccc(C(=O)Nc2cc(Cl)cc(Cl)c2)c1 [Compound 14]
inhibition at 10 µM (CyP A): 100%

O=C(NCc1cccc2ccccc12)c1cccc(NC(=O)c2cc(Cl)cc(Cl)c2)c1 [Compound 16, {3-[(3,5-dichlorophenyl)carbonylamino]phenyl}-N-(naphthylmethyl) formamide]
inhibition at 10 µM (CyP A): 100% | melting point: 205 to 208 °C

O=C(Nc1cccc(S(=O)(=O)NC(c2ccccc2)c2ccccc2)c1)C(c1ccccc1)c1ccccc1 [Compound 17]
IC50 (CyP A): 650 nM | inhibition at 10 µM (CyP A): 99%

O=C(Nc1cccc(S(=O)(=O)NC(c2ccccc2)c2ccccc2)c1)c1cc(Cl)cc(Cl)c1 [Compound 18]
IC50 (CyP A): 520 nM | inhibition at 10 µM (CyP A): 100%

CN(C)c1ccc(NC(=O)Nc2cc(NC(=O)Nc3ccc(N(C)C)cc3)c(Br)cc2Br)cc1 [Compound 19]
IC50 (CyP A): 2900 nM | inhibition at 10 µM (CyP A): 98%

O=C(NCc1cccc2ccccc12)Nc1cccc(NC(=O)NCc2cccc3ccccc23)c1 [Compound 21]
inhibition at 10 µM (CyP A): 100%

O=C(Nc1cccc(NC(=O)N(c2ccccc2)c2ccccc2)c1)N(c1ccccc1)c1ccccc1 [Compound 22]
inhibition at 10 µM (CyP A): 100%

O=C(Nc1cc(Cl)cc(Cl)c1)NC1CCCC(NC(=O)Nc2cc(Cl)cc(Cl)c2)C1 (centres unmarked) [Compound 23]
inhibition at 10 µM (CyP A): 100%

O=C(Nc1ccc(Br)cc1Br)NC1CCCC(NC(=O)Nc2ccc(Br)cc2Br)C1 (centres unmarked) [Compound 24]
inhibition at 10 µM (CyP A): 100%

O=C(NCC1CCCC(CNC(=O)Nc2cc(Cl)cc(Cl)c2)C1)Nc1cc(Cl)cc(Cl)c1 (centres unmarked) [Compound 25]
inhibition at 10 µM (CyP A): 100%

O=C(NCC1CCCC(CNC(=O)Nc2cc(Br)cc(Br)c2)C1)Nc1cc(Br)cc(Br)c1 (centres unmarked) [Compound 26]
inhibition at 10 µM (CyP A): 100%

Cc1ccc(NC(=O)Nc2cccc(NC(=O)Nc3ccc(C)cc3C)c2)c(C)c1 [Compound 27]
inhibition at 10 µM (CyP A): 100%

O=C(Nc1cc(Cl)cc(Cl)c1)Nc1cccc(NC(=O)Nc2cc(Cl)cc(Cl)c2)c1 [Compound 28]
inhibition at 10 µM (CyP A): 100%

O=C(Nc1cccc(NC(=O)Nc2ccc(Br)cc2Br)c1)Nc1ccc(Br)cc1Br [Compound 29]
inhibition at 10 µM (CyP A): 89%

O=C(NCc1cccc(CNC(=O)Nc2cc(Cl)cc(Cl)c2)c1)Nc1cc(Cl)cc(Cl)c1 [Compound 30]
inhibition at 10 µM (CyP A): 88%

O=C(NCc1cccc(CNC(=O)Nc2ccc(Br)cc2Br)c1)Nc1ccc(Br)cc1Br [Compound 31]
inhibition at 10 µM (CyP A): 100%

cyclosporin A [CsA, reference compound]
neuroprotective activity (number of viable neurons) (ventral horn motoneurons): maintains neuronal viability

Reference: patent US6593362B2, “Non-peptidic cyclophilin binding compounds and their use” (Guilford Pharmaceuticals Inc., priority 2001, dated 2003)
